# Data: ChEMBL document CHEMBL6134921, “Novel Tetrahydrobenzo[b]pyrazolo[3,4-e][1,4]diazepine Compounds as Oxytocin Receptor Agonists for Treating Autism Spectrum Disorders” (ACS Med Chem Lett, 2025)
# Experiments:
# Vasopressin V1a receptor = Vasopressin V1a receptor (Homo sapiens, UniProt P37288); test: Antagonist activity at V1A receptor (unknown origin) by calcium signal assay; type: functional
# Oxytocin receptor = target: T1, Oxytocin receptor (Homo sapiens, UniProt P30559); test: Agonist activity at oxytocin receptor (unknown origin) expressed in CHO cells by IP-1 accumulation assay; type: functional, cell-based
# T1 sequence (P30559 whole entry): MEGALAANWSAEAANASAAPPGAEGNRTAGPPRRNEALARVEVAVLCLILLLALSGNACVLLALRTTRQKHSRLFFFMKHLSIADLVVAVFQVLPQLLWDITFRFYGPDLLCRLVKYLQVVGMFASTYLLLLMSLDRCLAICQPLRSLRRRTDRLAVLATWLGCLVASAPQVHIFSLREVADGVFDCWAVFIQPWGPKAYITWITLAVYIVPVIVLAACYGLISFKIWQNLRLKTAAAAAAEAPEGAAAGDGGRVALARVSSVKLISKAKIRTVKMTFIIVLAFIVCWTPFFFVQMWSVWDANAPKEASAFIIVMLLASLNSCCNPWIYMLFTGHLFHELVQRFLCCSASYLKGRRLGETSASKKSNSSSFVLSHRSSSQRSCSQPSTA
# [1] = Selectivity ratio, IC50 for antagonist activity at V1A receptor (unknown origin) to EC50 for agonist activity at oxytocin receptor (unknown origin) expressed in CHO cells; type: cell-based
# Sequence of Vasopressin V1a receptor (P37288 whole entry): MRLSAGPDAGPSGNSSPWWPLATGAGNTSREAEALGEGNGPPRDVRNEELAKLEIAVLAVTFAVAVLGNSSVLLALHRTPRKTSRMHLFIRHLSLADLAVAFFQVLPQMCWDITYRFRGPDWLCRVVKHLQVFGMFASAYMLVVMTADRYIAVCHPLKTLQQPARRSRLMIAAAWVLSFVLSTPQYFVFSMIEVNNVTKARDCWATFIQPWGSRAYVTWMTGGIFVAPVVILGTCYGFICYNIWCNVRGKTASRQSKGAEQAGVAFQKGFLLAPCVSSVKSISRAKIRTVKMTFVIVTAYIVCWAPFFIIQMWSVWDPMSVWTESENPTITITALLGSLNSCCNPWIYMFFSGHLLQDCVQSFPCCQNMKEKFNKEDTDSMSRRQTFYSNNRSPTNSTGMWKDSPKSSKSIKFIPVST
Structure (SMILES),IC50 (Vasopressin V1a receptor),EC50 (Oxytocin receptor),Ratio IC50/EC50 [1]
Cc1cc(C(=O)N2Cc3cnn(C)c3Nc3ccccc32)ccc1CNC(=O)N1C[C@H](n2cc(CCc3nnn[nH]3)nn2)C[C@H]1C(=S)N(C)C,> 10000 nM,1.95 nM,> 5000
Cc1cc(C(=O)N2Cc3cnn(C)c3Nc3ccccc32)ccc1CNC(=O)N1C[C@H](n2cc(CF)nn2)C[C@H]1C(=S)N(C)C,,0.31 nM,
Cc1cc(C(=O)N2Cc3cnn(C)c3Nc3ccccc32)ccc1CNC(=O)N1C[C@H](n2cc(COCCF)nn2)C[C@H]1C(=S)N(C)C,,0.55 nM,
Cc1cc(C(=O)N2Cc3cnn(C)c3Nc3ccccc32)ccc1CNC(=O)N1C[C@H](n2cc(CC3NC(=O)NC3=O)nn2)C[C@H]1C(=S)N(C)C (some centres undefined),393 nM,0.26 nM,1510

# Continued, in another order:
IC50 (Vasopressin V1a receptor),EC50 (Oxytocin receptor),Structure (SMILES),Ratio IC50/EC50 [1]
966 nM,0.15 nM,Cc1cc(C(=O)N2Cc3cnn(C)c3Nc3ccccc32)ccc1CNC(=O)N1C[C@H](n2cc(CO)nn2)C[C@H]1C(=S)N(C)C,6450
700 nM,0.14 nM,Cc1cc(C(=O)N2Cc3cnn(C)c3Nc3ccccc32)ccc1CNC(=O)N1C[C@@H](n2cc(CO)nn2)C[C@H]1C(=S)N(C)C,5000
